Reference: patent publication US8399419B2, “Antibacterial aminoglycoside analogs” (Achaogen, Inc., priority 2008, dated 2013)
Converted amounts (≈) assume the structure as drawn.

Experiments:
E. coli ATCC 25922 = assay: MIC assay (CLSI broth microdilution), AECO001; assay type: cell-based; conditions: Escherichia coli; AECO001 is ATCC25922 (E. coli); Mueller Hinton Broth, 35 C, 20 hours
Method: (§1) Minimum inhibitory concentrations (MIC) were determined by reference Clinical and Laboratory Standards Institute (CLSI) broth microdilution methods per M7-A7 [2006]. Quality control ranges utilizing E. coli ATCC 25922, P. aeruginosa ATCC 27853 and S. aureus ATCC 29213, and interpretive criteria for comparator agents were as published in CLSI M100-S17 [2007]. Briefly, serial two-fold dilutions of the test compounds were prepared at 2× concentration in Mueller Hinton Broth. The compound dilutions were mixed in 96-well assay plates in a 1:1 ratio with bacterial inoculum. The inoculum was prepared by suspension of a colony from an agar plate that was prepared the previous day. Bacteria were suspended in sterile saline and added to each assay plate to obtain a final concentration of 5×10^5 CFU/mL. The plates were incubated at 35 C for 20 hours in ambient air.

P. aeruginosa ATCC 27853 = assay: MIC assay (CLSI broth microdilution), APAE001; assay type: cell-based; conditions: Pseudomonas aeruginosa; APAE001 is ATCC27853 (P. aeruginosa); Mueller Hinton Broth, 35 C, 20 hours
Method: as §1

| Compound | MIC (E. coli ATCC 25922) [µg/mL] | MIC (P. aeruginosa ATCC 27853) [µg/mL] |
| --- | --- | --- |
| NC[C@@H]1CC[C@@H](N)[C@@H](O[C@H]2[C@H](O[C@@H]3O[C@H](CO)[C@@H](O[C@H]4O[C@@H](CN)CC[C@H]4N)[C@H]3O)[C@@H](O)[C@H](NC(=O)[C@@H](O)C(F)(F)CN)C[C@@H]2N)O1 [Example 26/Compound 6, 3′,4′,3′″,4′″-tetra-deoxy-1-(4-amino-3,3-bisfluoro-2(R)-hydroxy-butyryl)-neomycin] | ≤ 1 | ≤ 1 |
| NC[C@@H]1CC[C@@H](N)[C@@H](O[C@H]2[C@H](O[C@@H]3O[C@H](CO)[C@@H](O[C@H]4O[C@@H](CN)CC[C@H]4N)[C@H]3O)[C@@H](O)[C@H](NC(=O)[C@H](O)C(F)(F)CN)C[C@@H]2N)O1 [Example 27/Compound 6, 3′,4′,3′″,4′″-tetra-deoxy-1-(4-amino-3,3-bisfluoro-2(S)-hydroxy-butyryl)-neomycin] | 1 to 16 (≈ 1.45 to 23.3 µM) | 1 to 16 (≈ 1.45 to 23.3 µM) |
| NC[C@@H]1CC[C@@H](N)[C@@H](O[C@H]2[C@H](O[C@@H]3O[C@H](CO)[C@@H](O[C@H]4O[C@@H](CN)CC[C@H]4N)[C@H]3O)[C@@H](O)[C@H](NC(=O)[C@@H](O)[C@@H](O)CN)C[C@@H]2N)O1 [Example 28/Compound 6, 3′,4′,3′″,4′″-tetra-deoxy-1-(4-amino-3,2-(S,S)-bis-hydroxy-butyryl)-neomycin] | ≤ 1 | ≤ 1 |
| NC[C@@H]1CC[C@@H](N)[C@@H](O[C@H]2[C@H](O[C@@H]3O[C@H](CO)[C@@H](O[C@H]4O[C@@H](CN)CC[C@H]4N)[C@H]3O)[C@@H](O)[C@H](NC(=O)[C@H](O)[C@H](O)CN)C[C@@H]2N)O1 [Example 29/Compound 6, 3′,4′,3′″,4′″-tetra-deoxy-1-(4-amino-3,2-(R,R)-bis-hydroxy-butyryl)-neomycin] | 1 to 16 (≈ 1.5 to 24 µM) | ≤ 1 |
